SMILES strings stand for the structures.

Common to all, as to type: cell-based, human
The test system of assay [1] is SLC16A11. Nature of the assay: Compound treatment, SLC16A11 expression by ddPCR in SNU761 cells. The following applies: SNU761 cells; for SLC16A11 transcript levels, compound treated compared to DMSO treated cells: same concentrations and treatment times as LINCS, ddPCR. On the procedure:
(§1) A small number of the compounds that made the strongest positive connections to the SLC16A11 gene expression signature were selected and tested. […] Methotrexate was also included, which had been annotated as a dihydrofolate reductase inhibitor. SNU761 cells (derived from a human hepatocellular carcinoma) and NCIH716 cells (derived from a human cecum adenocarcinoma), which both express SLC16A11, were treated with the compounds. The same compound concentrations and treatment times were used as in the LINCS dataset experiments. […] For normalization, a different housekeeper gene, HPRT1, was used and obtained similar results with the mTOR inhibitors (FIGS. 14A and 14B).
From the total list of compounds, 59 readily available compounds were selected from the 79 compounds with the largest connectivity scores to the query signature and 20 middle compounds with connectivity scores centered on 0 (FIG. 15A) and then treated SNU761 cells at the same doses and treatment times as were used in the LINCS dataset. It was expected that the top compounds would be enriched for compounds that increased SLC16A11 expression. […] The results were aligned with the expectations (FIG. 15B). Hierarchical clustering of the SLC16 expression profiles generated by the compound treatments are shown by the heat map in FIG. 15C.
(§2) SNU761 (human hepatocellular carcinoma) and NCIH716 (human cecum adenocarcinoma) were cultured in RPMI Medium 1640 supplemented with 10% Fetal Bovine Serum (FBS), 100 μg/ml Streptomycin and 100 U/ml Penicillin. Cells were grown in a humidified CO2 incubator, at 37° C.
(§3) For the unbiased approach taken to investigate the compounds that connected to the SLC16A11 gene expression signature, compounds were obtained from compound management at the Broad Institute.
(§4) SNU761 and NCIH716 cells were plated into 96 well plates at a density of 20,000 cells per well. Hepatocytes were plated into collagen coated 96 well plates (Corning, 354408) at a density of 50,000 cells per well. After 24 hours, cells were treated with compounds at a final concentration of 10 μM or vehicle control for the appropriate amount of time.
At the time of collection, cells in 96 well plates were lysed by directly adding 50 μL of RLT buffer (Qiagen). 75 μL of AMPure XP beads, diluted by a factor of 5 in polyethylene glycol, were then added to bind nucleic acids. One wash with polyethylene glycol was then performed. DNase treatment (Qiagen) was carried out according to the manufacturer's protocol in a final volume of 50 μL. 100 μL of polyethylene glycol was added after the DNase treatment to crowd nucleic acids back onto the beads. Two washes with 80% ethanol were performed and residual ethanol was removed. RNA was then eluted in water.
RNA was DNase treated and converted into cDNA using the High-Capacity RNA-to-cDNA kit (Thermo Fisher Scientific). The following FAM-labeled TaqMan Real-Time PCR assays (Thermo Fisher Scientific) were used to quantify gene expression: SLC16A11 (Hs00601062_g1), SLC16A13 (Hs00416832_m1), SLC16A1 (Hs01560299_m1). The VIC-labeled TaqMan Real-Time assays TBP (Hs00427620_m1) or HPRT1 (Hs02800695_m1) were used for normalization. Droplets were generated and analyzed using a QX200 Droplet Generator and Reader system (BioRad). Data was extracted using QuantaSoft (BioRad) and analyzed using Microsoft Excel.

Assay [2] concerns SLC16A11. Nature of the assay: Compound treatment, SLC16A11 expression by ddPCR in NCIH716 cells. As to conditions: same concentrations and treatment times as LINCS. As for the experimental part:
as §1, §2, §3, §4
At the time of collection, cells in 96 well plates were lysed by directly adding 50 μL of RLT buffer (Qiagen). […]
(§5) RNA was DNase treated and converted into cDNA using the High-Capacity RNA-to-cDNA kit (Thermo Fisher Scientific). The following FAM-labeled TaqMan Real-Time PCR assays (Thermo Fisher Scientific) were used to quantify gene expression: SLC16A11 (Hs00601062_g1), SLC16A13 (Hs00416832_m1), SLC16A1 (Hs01560299_m1). […] Droplets were generated and analyzed using a QX200 Droplet Generator and Reader system (BioRad). Data was extracted using QuantaSoft (BioRad) and analyzed using Microsoft Excel.

The subject of assay [3] is SLC16A1. Nature of the assay: Compound treatment, SLC16A1 expression by ddPCR in SNU761 cells. As to conditions: 10 μM for 24 hours. As for the experimental part:
(§6) FIGS. 14A-14D provide graphs showing that mTOR inhibitors increase SLC16A11, but not SLC16A1 transcript levels. […] SLC16A11 (FIGS. 14A and 14B) and SLC16A1 (FIGS. 14C and 14D) expression was then assessed using droplet digital PCR (ddPCR). Bar plots depict relative fold-changes with respect to DMSO and error bars and standard deviations. Expression is normalized to housekeeping genes TBP or HPRT1.
(§7) A small number of the compounds that made the strongest positive connections to the SLC16A11 gene expression signature were selected and tested. […] Methotrexate was also included, which had been annotated as a dihydrofolate reductase inhibitor. SNU761 cells (derived from a human hepatocellular carcinoma) and NCIH716 cells (derived from a human cecum adenocarcinoma), which both express SLC16A11, were treated with the compounds. […]
as §5

For assay [4], the system named is SLC16A1. Nature of the assay: Compound treatment, SLC16A1 expression by ddPCR in NCIH716 cells. As to conditions: 10 μM for 24 hours. As for the experimental part:
as §6, §7, §5

Another assay deals with SLC16A11 (A11). Nature of the assay: ddPCR based screening assay for modulators of SLC16A11 expression (Z′). The following applies: SNU 761 cells; compound as positive control. An excerpt:
As detailed herein above, SLC16A11 (A11) belongs to a family of monocarboxylate transporters. Expression of A11 was studied in SNU 761 cell lines. These liver cancer cells are ideal for studying SLC16A11 expression because A11 is expressed in higher quantity in liver cells, although expression of the gene in all tissues is extremely low. The 5 SNP risk haplotype causes lowered expression and interferes with protein-protein interactions between A11 and a cofactor protein, indicating loss of function. Therefore, increasing A11 expression in individuals with the risk haplotype is likely beneficial.
The quality of an assay can be quantified by Z′, a measure of how well the assay can differentiate between the positive and negative controls. Using the formula: […]
First the cells were treated with inhibitor compounds, their RNA was extracted, and that RNA was used as a template to create DNA. Then, the DNA was quantified using droplet digital PCR (ddPCR), analyzed and quantified using QuantaSoft™ (BioRad). […]
From the QuantaSoft scoring of each droplet, the means and standard deviations of SLC16A11 expression levels was determined in response to compound treatment. […] Points in light gray had the gene of interest and were scored as positive (FIG. 17C). SLC16A11 was scored in the graph. […]

Assay [5] relates to SLC16-dependent pyruvate transport. Nature of the assay: Pyronic FRET pyruvate transport assay in 293T cells. As to conditions: 293T cells pre-incubated with inhibitor; 0.4 mM pyruvate, pH 7.4. An excerpt: To obtain “proof of concept” for monocarboxylate transport by SLC16A11, pyruvate was focused on as the metabolite transported by all four SLC16 category I proteins, whose real-time transport in mammalian cells can be readily studied by the pyruvate FRET sensor, pyronic. 293T cells were co-transfected with pyronic and either empty vector control or SLC16A11-V5, which increases SLC16A11 levels without affecting other category I family members (FIG. 3M). Cells were perfused in physiological pH 7.4 Ringer's solution and 0.4 mM pyruvate was added at the indicated time point (FIG. 3D), resulting in an increase of the fluorescence signal, indicative of pyruvate uptake. […] Thus, this is consistent with the increase in fluorescence resulting from SLC16-dependent pyruvate transport.
Cells were transferred onto glass cover slips in 60 mm tissue culture dishes 72 hr prior to the experiment. […] Cytoplasmic pH changes, indicative of H^+ transport, were determined in cells loaded with 1 μM BCECF-AM (Rink, T. J. et al., 1982, J Cell Biol, 95:189-196), a pH sensitive dye. […] Rates of proton influx and efflux were calculated as the slopes immediately following addition and withdrawal of pyruvate, after correcting for baseline drift. Baseline drift due to fluorescence bleaching is calculated during the initial 50 seconds of each trace prior to addition of pyruvate. […]

As to `COc1ccc(-c2ccc3c(N4CCOCC4)nc(N4C[C@@H](C)O[C@@H](C)C4)nc3n2)cc1CO` [KU-0063794, [5-[2-(2,6-dimethylmorpholin-4-yl)-4-morpholin-4-ylpyrido[2,3-d]pyrimidin-7-yl]-2-methoxyphenyl]methanol], the “SLC16A11 transcript levels, compound treated compared to DMSO treated cells” value with SLC16A11 [1] and in the assay on SLC16A11 [2] was “about 3 fold” throughout. The “avg_fc (SLC16A11 expression, compound treated vs DMSO treated cells)” value in the assay with SLC16A11 [1] (same doses and treatment times as in the LINCS dataset) came to 4.009. Besides, the “increase in SLC16A11 expression, compound treated compared to DMSO treated cells” value in the assay with SLC16A11 [1] (unbiased test of 59 top and 20 middle LINCS compounds, LINCS doses and times) is recorded as around 4 fold. Also, the “SLC16A1 expression with respect to DMSO” value in the assay with SLC16A1 [3] and in the assay on SLC16A1 [4] was “slight decrease” in each case. In the assay with SLC16A11 (A11), the “A11 expression in manual ddPCR assay” value is “increased”.
As for `Cc1n[nH]c(C)c1Cc1sc2c(c1C(=O)N1C[C@H](O)CO1)c(=O)n(C)c(=O)n2CC(C)C` [AR-C155858], in assay [5], the “pyronic fluorescence signal (pyruvate uptake)” value is given as “completely diminished”.
Regarding `CN(Cc1cnc2nc(N)nc(N)c2n1)c1ccc(C(=O)N[C@@H](CCC(=O)O)C(=O)O)cc1` [methotrexate, reference compound], the “SLC16A11 transcript levels, compound treated compared to DMSO treated cells” value in the assay on SLC16A11 [1] and with SLC16A11 [2] was “did not alter” each time.
